Structures are written as SMILES.

The nature of data set [1]: Effect on blood pressure and heart rate in mice. Format: in vivo, mouse. The conditions noted are these: ICR mice, intravenous 0.01 mg/kg, isoflurane anesthesia. The procedure: Male ICR mice (5 weeks old, Japan SLC) were purchased, acclimated for 6 days and used for the test. The animals were treated and measured under isoflurane inhalation anesthesia (anesthesia introduced at 2.5%, maintained at 1.8-2.1%), while body temperature was kept at 37° C. with a Heat Controller (ATC-402, Unique Medical Co., Ltd.). A catheter for administration of test compounds was inserted into the left femoral vein, and another catheter was inserted into the right femoral artery and connected to a pressure transducer to record each parameter of hemodynamics.
Compound F, the carboxylate form of compound F and BPS were intravenously administered at a dose of 0.01 mg/5 mL/kg, and the effect on the mean blood pressure and heart rate was evaluated with computer software for the analysis of hemodynamics (Fluclet, Dainippon Sumitomo Pharma Co., Ltd.). To the control group was intravenously administered a solvent (1.2% ethanol solution) at 5 mL/kg in the same manner. The results are expressed as a ratio of change in each parameter before and after the drug administration. Three to 6 animals were used for each group, and the results were expressed as average±standard deviation.

Data set [2] relates to dextran sodium sulfate-induced colitis. Put plainly: Dextran sodium sulfate-induced colitis model in mice (C57BL/6). The conditions noted are these: C57BL/6 mice, DSS, oral 0.3 mg/kg once a day. The data set is classed as in vivo, mouse. The procedure:
Whether or not an IP agonist has an effect on such colitis model was determined using a selective IP agonist, BPS.
Female C57BL/6 mice (6 weeks old, Japan SLC) were purchased, acclimated for 1 week and used for the study. Except the normal group, the mice were allowed to freely drink a 3 or 2 w/v % DSS (MP Biochemicals, Lot No. 5653H and 5464H, respectively) solution for 1 week to induce colitis. BPS at a dose of 0.3 mg/kg and compound F at doses of 0.3 and 1 mg/kg were orally administered once a day, daily, from the start day of DSS drinking (day 0) to one day before autopsy (day 9). To the control group was orally administered a solvent (1 vol % ethanol solution) at 10 mL/kg in the same manner. The consistency of the stool was graded from score 0 to 4, with normal (0), partly loose stool (1), loose stool (2) and diarrhea (4). The blood feces was also graded from score 0 to 4, with normal (0), partly blood feces (1), blood feces (2) and blood feces plus proctorrhagia (4). The sum of both grades was defined as the stool score (maximum 8). Furthermore, the length of the large intestine was measured in the same manner as in Example 23. Six to 10 animals were used for each group, and the results are shown in average±standard deviation.

Data set [3] concerns anti-Thy-1 antibody-induced glomerulonephritis. Briefly: Anti-Thy-1 antibody-induced glomerulonephritis model in rats. Format: in vivo, rat. The following applies: Wistar rats, oral 0.3 mg/kg twice a day. The procedure: Male Slc: Wistar rats (6 weeks old, Japan SLC) were purchased, acclimated for 1 week and used for the study. Except the normal group, anti-Thy-1 antibody (mouse anti-CD90 antibody (UK-Serotech Ltd. Code:MCA47XZ, clone No: MRC OX-7, Lot No. 0303)) was administered once intravenously to the animals. A mixture of compound F and compound J (F:J=52:41, indicated as compound F/J) was orally administered from the day of the antibody administration (day 0) to day 6, daily, twice a day (morning and evening; each 0.3 mg/kg). After 3 days from the antibody administration, urine was collected for one day. On day 7 of the antibody administration, the animal was autopsied. The right kidney was isolated, weighed and fixed with formalin. Five to 8 animals were used for each group and the results were expressed as average±standard deviation.

Data set [4] can be described thus: In vitro metabolic stability: NADPH-independent β oxidation reaction in rat liver mitochondria fraction. The data set is classed as in vitro ADME. The conditions noted are these: 37° C., 30 min, tested as isomer mixtures, average±SD of 3 experiments. The procedure: A mixture of the compound F and compound J of the present invention described in Table 1 (F:J=52:41, synthesized in Example 14), and a mixture of compounds wherein the tetrazole groups at C-1 of compound F and compound J are respectively substituted by carboxylic acid (referred to as carboxylate form, F:J=54:34, synthesized in Example 15) were tested.
First, a mitochondria fraction was prepared from the rat liver according to the following Reference A. Then, in reference to the method of […] et al. described in the following References B and C, an NADPH-independent β oxidation reaction was studied. The reaction was carried out at 37° C. for 30 min, and stopped with a methanol solution containing a suitable internal standard substance. Each compound was quantified by the internal standard method using a high performance liquid chromatography mass spectrometry apparatus (LC-MS/MS). The compound residual ratio after metabolic reaction of compounds F, J and each carboxylate form thereof in rat mitochondria fraction is shown in the following Table 2 in average±standard deviation of 3 experiments.

In data set [5] the target is T1, human EP4 (Homo sapiens, UniProt P35408).
T1 construct: expressed in transfected cells; host or cells: COS-7 (membranes)
T1 sequence (P35408 whole entry): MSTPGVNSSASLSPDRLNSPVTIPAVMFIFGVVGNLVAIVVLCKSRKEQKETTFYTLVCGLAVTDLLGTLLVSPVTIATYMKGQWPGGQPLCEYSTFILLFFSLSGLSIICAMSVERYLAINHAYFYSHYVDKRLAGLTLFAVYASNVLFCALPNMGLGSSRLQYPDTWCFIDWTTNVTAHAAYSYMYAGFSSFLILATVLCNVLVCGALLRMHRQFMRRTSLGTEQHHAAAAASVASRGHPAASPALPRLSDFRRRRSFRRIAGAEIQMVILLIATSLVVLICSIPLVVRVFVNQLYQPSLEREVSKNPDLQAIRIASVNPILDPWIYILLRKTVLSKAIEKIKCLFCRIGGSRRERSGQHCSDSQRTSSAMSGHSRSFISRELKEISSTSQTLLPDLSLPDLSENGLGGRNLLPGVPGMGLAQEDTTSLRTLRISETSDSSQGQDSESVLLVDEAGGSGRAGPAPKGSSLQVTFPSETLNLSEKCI
Briefly: Receptor affinity, tritium-labeled PGE2 binding to membranes of transfected COS-7 cells. The following applies: binding affinity ratio. Here is the method:
PG receptor affinity of compound F and compound J of the present invention was evaluated. Compound F used was one synthesized in Example 9, and compound J was prepared by separating and purifying the compound synthesized in Example 14 with a column (the same preparations were used in the following Examples). COS-7 cells were transfected with the genes of mouse EP4, human EP1-4 or human IP to overexpress the receptor and then the cell membranes were collected. […] The dissociation constant Kd value was obtained and inhibition constant Ki value of each test compound was determined in a conventional method.

Data set [6] relates to dextran sodium sulfate-induced colitis. Briefly: Remission/relapse model of dextran sodium sulfate-induced colitis in mice, therapeutic. Format: in vivo, mouse. The conditions noted are these: compound F 1 mg/kg, SASP 100 mg/kg, oral once a day for 50 days. The text has this: Next, therapeutic effect of compound F on colitis was studied in a chronic model. Female BALB/c mice, 6 weeks old, body weight about 20 g (Japan SLC) were purchased, acclimated for 1 week and used for the study. The mice were divided into a colitis induction group and a normal group. The colitis induction group was allowed to freely drink a 2.6 w/v % DSS (MP Biochemicals, M.W. 36,000-50,000, Lot No. 4556J) solution to induce colitis. On day 8 when the stool score (defined in Example 23) of the colitis induction group reached about 4.5, the mice were subdivided into a control group, a compound F 1 mg/kg administration group and a salazosulfapyridine (SIGMA, Lot No. 085K1930, hereinafter to be abbreviated as SASP) 100 mg/kg administration group. Then the mice were allowed to freely drink distilled water instead of DSS solution for 9 days (remission period). After the grouping, the stool score was evaluated every 3-4 days. […]
Compound F at a dose of 1 mg/kg and SASP at a dose of 100 mg/kg were orally administered once a day, daily, for 50 days from the initial remission period (day 8 from the start of 2.6 w/v % DSS drinking) to the fifth remission period (day 57 from the start of 2.6 w/v % DSS drinking). […] The remission ratio (%) was calculated as a ratio of mice in remission in each group. […]

Data set [7] relates to T cell transfer colitis. Briefly: CD4+CD25- T cell transfer colitis model in mice. The conditions noted are these: C.B-17/Icr-scid mice, oral 1 mg/kg once a day. The data set is classed as in vivo, mouse. The text has this:
The effect on Crohn's disease, another type of inflammatory bowel disease, was studied. T cell transfer model is well known as a Crohn's disease model, which develops chronic […] or enteritis (see: References F, G, H). In addition, it can also be regarded as an animal model of intestinal Behcet's disease or simple ulcer, suffering from similar intestinal ulcer accompanied by activation of T cells (see: References I, J).
Female BALB/cA Jcl mice, 6 weeks old, body weight 19-23 g (CLEA Japan, Inc.) and female C.B-17/Icr-scid mice (6 weeks old, CLEA Japan, Inc.) were purchased, acclimated for 1 week and used for the study.
After laparotomy under ether anesthesia, BALB/cA Jcl mice were exsanguinated to death through the abdominal aorta and caudal vena cava, and the spleen was isolated. Splenocytes were prepared from the spleen and then CD4^+CD25^− T cells were prepared with a CD4^+ T cell Isolation Kit (No. 130-090-860, Milky Biotech Co., Ltd.) and CD25-Biotin antibody (No. 130-092-569, Milky Biotech Co., Ltd.). The cells were separated using the autoMACS Separator (Milky Biotech Co., Ltd.). The separated CD4^+CD25^− T cells were suspended in physiological phosphate buffer solution, and 2.5×10^5 cells per animal were intraperitoneally administered to C.B-17/Icr-scid mice to induce colitis.
One mg/kg of compound F or prednisolone was initially administered at 5 hr before transfer of CD4^+CD25^− T cells, and orally administered thereafter once a day, daily, for 20 days. To the control group was orally administered a solvent (1 vol % ethanol solution) at 10 mL/kg. A clinical endpoint was the sum of stool consistency score (0-5), fecal occult blood score (0-4) and body weight decrease score (0-5), termed as the Disease Activity Index score (hereinafter to be abbreviated as DAI score: highest score 14). The stool consistency score was graded for the hardness of stool as normal (0), slightly loose (1), somewhat loose (2), loose (3), considerably loose (4) and diarrhea (5). The fecal occult blood score was evaluated in the same manner as in Example 23. The body weight decrease score was graded for the changes in the body weight as increase (0), decrease of less than 3% (1), decrease of not less than 3% and less than 6% (2), decrease of not less than 6% and less than 9% (3), decrease of not less than 9% and less than 12% (4), and decrease of not less than 12% (5). Eight to 10 mice were used for each group and the results were expressed as average.

Data set [8] concerns concanavalin A-induced hepatitis. Briefly: Concanavalin A-induced hepatitis model in mice, prophylactic. The data set is classed as in vivo, mouse. The following applies: BALB/c mice, oral 1 hr before Con A; compound F 1 mg/10 mL/kg, prednisolone 5 mg/10 mL/kg. Here is the method: The prophylactic effect of compound F on hepatitis was investigated using concanavalin A (hereinafter Con A)-induced hepatitis model.
BALB/c mice (female, 7 weeks old, Japan SLC) were purchased, acclimated for 1 week and used for the study. Except the no-induction group, Con A (type IV, Sigma-Aldrich) dissolved in saline was administered from the tail vein of the mice at a dose of 12.5 mg/10 mL/kg to induce hepatitis. Twenty hr later, the mice were subjected to laparotomy under ether anesthesia. A 0.5 mL of blood sample was collected from the caudal vena cava and heparinized plasma was obtained to measure plasma ALT and AST activities. Test substances were compound F (1 mg/10 mL solution), prednisolone (Nacalai Tesque, 5 mg/10 mL suspension (with 0.5 w/v % methylcellulose)) and water for injection (administered to the control group), which were orally administered at a volume of 10 mL/kg 1 hr before Con A injection. Seven to 9 animals were used for each group. After logarithmic transformation of the data, one-way analysis of variance was performed for statistical evaluation.

For the molecule `CC#CCC(C)[C@H](O)/C=C/[C@@H]1[C@H]2c3cccc(CCCC(=O)O)c3O[C@H]2C[C@H]1O` (mixture of isomers) [BPS, beraprost sodium, reference compound], in data set [1], the “Effect on heart rate” value is “on the increase and remained high even after 10 min”; the “Maximum decrease ratio of mean blood pressure” value is given as 38%. In addition, in data set [2], the “Effect on shortening of the large intestine” value was “no effect” and the “Effect on stool score” value is listed as “tendency toward aggravation”.
As for `Cc1cccc(C(C)[C@H](O)/C=C/[C@@H]2[C@@H]3[C@H](C[C@H]2O)O/C(=C\CCCc2nnn[nH]2)C3(F)F)c1` (mixture of isomers) [compound F/J, 4-[(Z)-(1S,5R,6R,7R)-6-[(1E,3R,4RS)-3-hydroxy-4-(m-tolyl)-1-pentenyl]-7-hydroxy-2-oxa-4,4-difluoro-bicyclo[3.3.0]octan-3-ylidene]-1-(tetrazol-5-yl)butane], in data set [3], the 24-hr urine protein entry was “lower value than control”; the 24-hr urine volume entry is listed as “of the same level as the normal group”; the Body weight result is on record as “shift similar to that of the control group”; the Relative kidney weight entry was “lower than control and near the normal”. Moreover, the “Renal histopathology: total glomerular cells, mesangial region and PCNA-positive cells in the glomerulus” value in data set [3] is “significantly suppressed the increase”.
Consider `Cc1cccc([C@H](C)[C@H](O)/C=C/[C@@H]2[C@@H]3[C@H](C[C@H]2O)O/C(=C\CCCc2nnn[nH]2)C3(F)F)c1` [Compound J, 4-[(Z)-(1S,5R,6R,7R)-6-[(1E,3R,4S)-3-hydroxy-4-(m-tolyl)-1-pentenyl]-7-hydroxy-2-oxa-4,4-difluoro-bicyclo[3.3.0]octan-3-ylidene]-1-(tetrazol-5-yl)butane], for which the “Residual ratio of parent compound after β-oxidation reaction” value in data set [4] is 90.1 ± 6.9%. Moreover, the “Affinity for human EP4 higher than to human IP” value in data set [5] amounted to 40 fold.
In the case of `O=C(O)c1cc(/N=N/c2ccc(S(=O)(=O)Nc3ccccn3)cc2)ccc1O` [SASP, salazosulfapyridine, reference compound], the “Effect on stool score in remission and relapse periods” value in data set [6] is reported as “did not show a clear effect”.
As for `C[C@]12C=CC(=O)C=C1CC[C@@H]1[C@@H]2[C@@H](O)C[C@@]2(C)[C@H]1CC[C@]2(O)C(=O)CO` [prednisolone, reference compound], in data set [7], the “Effect on body weight decrease score” value is “clearly worsened the score”, the “Effect on fecal occult blood score” value is “suppressed an increase in the fecal occult blood score by almost the same level as the compound F administration” and the “Effect on stool consistency score” value is “failed to show a clear effect”. In addition, the “Effect on increase of plasma ALT and plasma AST activities” value in data set [8] was “significantly and strongly suppressed the increase”.

The values are drawn from patent publication US9034906B2, “EP4 agonist” (Asahi Glass Company, Limited, priority 2008, dated 2015).
